Read-outs that look alike come from different tables or passages of the source. *1 amine or outer side, *2 acyl side, *3 side chain or, on linkers, in order; H or OH if unused. Where a SMILES comes first, the peptide text is derived from it. Side-chain parts run from the residue outwards. [ ]: non-standard residue; d: D form. The star is where a group is joined. C18 diacid = O=C(O)CCCCCCCCCCCCCCCCC(=O)*; γGlu = O=C(O)[C@H](CCC(=O)[*:2])N[*:1]; εLys = N[C@@H](CCCCN[*:1])C(=O)[*:2]; Aib = CC(C)(N)C(=O)O
Experiments:
[1] = molecular target: T1, hGIPR (Homo sapiens, UniProt P48546); test: hGIPR CreLuc assay in 0.5% and 100% plasma (CHO CRE-luciferase reporter cells); type: cell-based
T1 construct: expressed in transfected cells; host or cells: CHO CRE-luciferase reporter cells
T1 sequence (P48546 22-466): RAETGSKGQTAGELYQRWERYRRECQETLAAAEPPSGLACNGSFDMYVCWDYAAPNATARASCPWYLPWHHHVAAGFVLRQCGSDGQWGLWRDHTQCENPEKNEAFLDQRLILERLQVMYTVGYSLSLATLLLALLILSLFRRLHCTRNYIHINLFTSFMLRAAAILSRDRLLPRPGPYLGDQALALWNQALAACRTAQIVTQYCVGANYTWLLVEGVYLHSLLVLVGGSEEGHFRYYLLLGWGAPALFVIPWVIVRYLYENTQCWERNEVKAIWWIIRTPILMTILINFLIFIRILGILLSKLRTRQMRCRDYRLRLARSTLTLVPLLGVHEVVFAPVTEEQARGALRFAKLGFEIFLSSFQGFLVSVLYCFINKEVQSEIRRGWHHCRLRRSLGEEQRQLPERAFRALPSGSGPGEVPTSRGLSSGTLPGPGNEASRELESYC

[2] = Solubility in 0.1 M phosphate buffer at pH 7; type: physicochemical; conditions: 0.1 M phosphate buffer at pH 7, 10 mg/mL final peptide concentration, shaking 2 hours at room temperature, peptides as TFA-salts; measured sample pH 6.5-7.0
[3] = molecular target: T2, hGLP1R (Homo sapiens, UniProt P43220); test: hGLP1R CreLuc assay in 0.5% and 100% plasma (HEK-293 CRE-luciferase reporter cells); type: cell-based; conditions: HEK-293 reporter cells
T2 construct: expressed in transfected cells; host or cells: HEK-293 CRE-luciferase reporter cells
T2 sequence (P43220 24-463): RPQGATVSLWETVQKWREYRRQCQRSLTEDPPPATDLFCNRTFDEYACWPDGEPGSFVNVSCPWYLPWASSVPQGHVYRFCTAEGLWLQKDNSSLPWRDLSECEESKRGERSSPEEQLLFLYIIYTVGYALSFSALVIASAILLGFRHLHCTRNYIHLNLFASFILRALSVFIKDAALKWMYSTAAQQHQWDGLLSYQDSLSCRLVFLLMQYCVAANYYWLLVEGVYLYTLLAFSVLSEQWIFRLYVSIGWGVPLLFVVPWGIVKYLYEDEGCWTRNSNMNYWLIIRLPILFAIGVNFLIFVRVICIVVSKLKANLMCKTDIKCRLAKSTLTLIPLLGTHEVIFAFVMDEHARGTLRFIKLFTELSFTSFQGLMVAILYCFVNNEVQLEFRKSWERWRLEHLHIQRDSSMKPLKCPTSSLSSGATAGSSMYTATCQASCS

[4] = 0.5% human plasma, read-out: hGIPR 0.5% hP
[5] = 100% human plasma, read-out: hGIPR 100% hP
[6] = 0.5% human plasma, read-out: hGLP1R 0.5% hP

EC50 [1, 4]	EC50 [1, 5]	solubility at 2 h [2]	EC50 [3, 6]	EC50 ([3]; 100% human plasma, read-out: hGLP1R 100% hP)	Compound
0.1 nM	0.9 nM	8800 µg/mL	0.2 nM	1.7 nM	CC[C@H](C)[C@H](NC(=O)[C@H](CC(C)C)NC(=O)[C@H](Cc1c[nH]cn1)NC(=O)[C@H](CCCNC(=N)N)NC(=O)[C@@H](NC(=O)[C@H](Cc1ccccc1)NC(=O)[C@H](C)NC(=O)C(C)(C)NC(=O)[C@H](CCC(N)=O)NC(=O)[C@H](C)NC(=O)[C@H](CCC(N)=O)NC(=O)[C@H](CCC(=O)O)NC(=O)[C@H](CCC(=O)O)NC(=O)[C@H](CC(C)C)NC(=O)[C@](C)(CC(C)C)NC(=O)[C@@H](NC(=O)[C@H](CO)NC(=O)[C@H](Cc1ccc(O)cc1)NC(=O)[C@H](CC(=O)O)NC(=O)[C@H](CO)NC(=O)[C@@H](NC(=O)[C@H](Cc1ccccc1)NC(=O)[C@@H](NC(=O)CNC(=O)[C@H](CCC(=O)O)NC(=O)C(C)(C)NC(=O)[C@@H](N)Cc1ccc(O)cc1)[C@@H](C)O)[C@@H](C)O)[C@@H](C)CC)C(C)C)C(=O)N[C@@H](CC(N)=O)C(=O)N[C@@H](CCCCNC(=O)[C@@H](N)CCCCNC(=O)CC[C@H](NC(=O)CC[C@H](NC(=O)CC[C@H](NC(=O)CC[C@H](NC(=O)CC[C@H](NC(=O)CC[C@H](NC(=O)CCCCCCCCCCCCCCCCCCC(=O)O)C(=O)O)C(=O)O)C(=O)O)C(=O)O)C(=O)O)C(=O)O)C(=O)NC(C)(C)C(=O)N[C@H](C(=O)N[C@@H](CCCNC(=N)N)C(=O)N[C@@H](CCC(N)=O)C(=O)N[C@@H](CCCNC(=N)N)C(=O)N[C@@H](Cc1ccc(O)cc1)C(N)=O)[C@@H](C)O [Compound 89, Y-Aib-E-G-T-F-T-S-D-Y-S-I-aMeL-L-E-E-Q-A-Q-Aib-A-F-V-R-H-L-I-N-K(1,3)-Aib-T-R-Q-R-Y-NH2.C20DA-gGlu-gGlu-gGlu-gGlu-gGlu-gGlu-eLys(1,2)]
0.2 nM	5.5 nM	8700 µg/mL	0.1 nM	–	CC[C@H](C)[C@H](NC(=O)[C@H](CC(C)C)NC(=O)[C@H](Cc1c[nH]cn1)NC(=O)[C@H](CCCNC(=N)N)NC(=O)[C@@H](NC(=O)[C@H](Cc1ccccc1)NC(=O)[C@H](CCC(=O)O)NC(=O)C(C)(C)NC(=O)[C@H](CCC(N)=O)NC(=O)[C@H](C)NC(=O)[C@H](CCC(N)=O)NC(=O)[C@H](CCCCN)NC(=O)[C@H](CC(=O)O)NC(=O)[C@H](CC(C)C)NC(=O)C(C)(C)NC(=O)[C@@H](NC(=O)[C@H](CO)NC(=O)[C@H](Cc1ccc(O)cc1)NC(=O)[C@H](CC(=O)O)NC(=O)[C@H](CO)NC(=O)[C@@H](NC(=O)[C@H](Cc1ccccc1)NC(=O)[C@@H](NC(=O)CNC(=O)[C@H](CCC(=O)O)NC(=O)C(C)(C)NC(=O)[C@@H](N)Cc1ccc(O)cc1)[C@@H](C)O)[C@@H](C)O)[C@@H](C)CC)C(C)C)C(=O)N[C@@H](CC(N)=O)C(=O)N[C@@H](CCCCNC(=O)[C@@H](N)CCCCNC(=O)CC[C@H](NC(=O)CC[C@H](NC(=O)CC[C@H](NC(=O)CC[C@H](NC(=O)CC[C@H](NC(=O)CCCCCCCCCCCCCCCCC(=O)O)C(=O)O)C(=O)O)C(=O)O)C(=O)O)C(=O)O)C(=O)NC(C)(C)C(=O)N[C@H](C(=O)N[C@@H](CCCNC(=N)N)C(=O)N[C@@H](CCC(N)=O)C(=O)N[C@@H](CCCNC(=N)N)C(=O)N[C@@H](Cc1ccc(O)cc1)C(N)=O)[C@@H](C)O [Compound 113, Y-Aib-E-G-T-F-T-S-D-Y-S-I-Aib-L-D-K-Q-A-Q-Aib-E-F-V-R-H-L-I-N-K(1,3)-Aib-T-R-Q-R-Y-NH2.C18DA-gGlu-gGlu-gGlu-gGlu-gGlu-eLys(1,2)]
0.5 nM	–	4900 µg/mL	0.7 nM	–	CC[C@H](C)[C@H](NC(=O)[C@H](CC(C)C)NC(=O)[C@H](Cc1c[nH]cn1)NC(=O)[C@H](CCCNC(=N)N)NC(=O)[C@@H](NC(=O)[C@H](Cc1ccccc1)NC(=O)[C@H](CCC(=O)O)NC(=O)C(C)(C)NC(=O)[C@H](CCC(N)=O)NC(=O)[C@H](C)NC(=O)[C@H](CCC(N)=O)NC(=O)[C@H](CCCCN)NC(=O)[C@H](CCC(=O)O)NC(=O)[C@H](CC(C)C)NC(=O)C(C)(C)NC(=O)[C@@H](NC(=O)[C@H](CO)NC(=O)[C@H](Cc1ccc(O)cc1)NC(=O)[C@H](CC(=O)O)NC(=O)[C@H](CO)NC(=O)[C@@H](NC(=O)[C@H](Cc1ccccc1)NC(=O)[C@@H](NC(=O)CNC(=O)[C@H](CCC(=O)O)NC(=O)C(C)(C)NC(=O)[C@@H](N)Cc1ccc(O)cc1)[C@@H](C)O)[C@@H](C)O)[C@@H](C)CC)C(C)C)C(=O)N[C@@H](CC(N)=O)C(=O)N[C@@H](CCCCNC(=O)COCCOCCNC(=O)COCCOCCNC(=O)CC[C@H](NC(=O)CC[C@H](NC(=O)CC[C@H](NC(=O)CC[C@H](NC(=O)CC[C@H](NC(=O)CCCCCCCCCCCCCCCCC(=O)O)C(=O)O)C(=O)O)C(=O)O)C(=O)O)C(=O)O)C(=O)NC(C)(C)C(=O)N[C@H](C(=O)N[C@@H](CCCNC(=N)N)C(=O)N[C@@H](CCC(N)=O)C(=O)N[C@@H](CCCNC(=N)N)C(=O)N[C@@H](Cc1ccc(O)cc1)C(N)=O)[C@@H](C)O [Compound 98, Y-Aib-E-G-T-F-T-S-D-Y-S-I-Aib-L-E-K-Q-A-Q-Aib-E-F-V-R-H-L-I-N-K(1,3)-Aib-T-R-Q-R-Y-NH2.C18DA-gGlu-gGlu-gGlu-gGlu-gGlu-OEG-OEG(1,2)]
0.2 nM	–	4800 µg/mL	0.6 nM	–	CC[C@H](C)[C@H](NC(=O)[C@H](CC(C)C)NC(=O)[C@H](Cc1c[nH]cn1)NC(=O)[C@H](CCCNC(=N)N)NC(=O)[C@@H](NC(=O)[C@H](Cc1ccccc1)NC(=O)[C@H](C)NC(=O)C(C)(C)NC(=O)[C@H](CCC(N)=O)NC(=O)[C@H](C)NC(=O)[C@H](CCC(N)=O)NC(=O)[C@H](CCCCN)NC(=O)[C@H](CCC(=O)O)NC(=O)[C@H](CC(C)C)NC(=O)C(C)(C)NC(=O)[C@@H](NC(=O)[C@H](CO)NC(=O)[C@H](Cc1ccc(O)cc1)NC(=O)[C@H](CC(=O)O)NC(=O)[C@H](CO)NC(=O)[C@@H](NC(=O)[C@H](Cc1ccccc1)NC(=O)[C@@H](NC(=O)CNC(=O)[C@H](CCC(=O)O)NC(=O)C(C)(C)NC(=O)[C@@H](N)Cc1ccc(O)cc1)[C@@H](C)O)[C@@H](C)O)[C@@H](C)CC)C(C)C)C(=O)N[C@@H](C)C(=O)N[C@@H](CCCCNC(=O)[C@@H](N)CCCCNC(=O)CC[C@H](NC(=O)CC[C@H](NC(=O)CC[C@H](NC(=O)CC[C@H](NC(=O)CC[C@H](NC(=O)CC[C@H](NC(=O)CCCCCCCCCCCCCCCCC(=O)O)C(=O)O)C(=O)O)C(=O)O)C(=O)O)C(=O)O)C(=O)O)C(=O)NC(C)(C)C(=O)N[C@H](C(=O)N[C@@H](CCCNC(=N)N)C(=O)N[C@@H](CCC(N)=O)C(=O)N[C@@H](CCCNC(=N)N)C(=O)N[C@@H](Cc1ccc(O)cc1)C(N)=O)[C@@H](C)O [Compound 68, Y-Aib-E-G-T-F-T-S-D-Y-S-I-Aib-L-E-K-Q-A-Q-Aib-A-F-V-R-H-L-I-A-K(1,3)-Aib-T-R-Q-R-Y-NH2.C18DA-gGlu-gGlu-gGlu-gGlu-gGlu-gGlu-eLys(1,2)] (H-Y[Aib]EGTFTSDYSI[Aib]LEKQAQ[Aib]AFVRHLIAK([εLys-γGlu-γGlu-γGlu-γGlu-γGlu-γGlu-C18 diacid])[Aib]TRQRY-NH2; N-terminus assumed)

Reference: patent publication US20250382344A1, “Soluble GLP1/GIP/NPY2 Receptor Triple Agonists” (Boehringer Ingelheim International GmH, priority 2024, published 2025)
